The test system of assay [1] is human dermal skin fibroblasts. Nature of the assay: Comparative analysis of HBR, its grafting moieties alone or as a mixture, on stemness gene expression. In kind it is cell-based. Conditions: 12 hours, 2.0 mg/ml HBR, 1.5 mg/ml HA, 2.5 mM BU, 10^-8M RA, hydrolyzed HBR 2 mg/ml. The protocol:
FIG. 6 is the comparative analysis of the effect of HBR, or its grafting moieties alone or as a mixture, on the expression of sternness-related genes in human dermal skin fibroblasts: cells were incubated for 12 hours in the absence or presence of 2.0 mg/ml HBR, 1.5 mg/ml HA, 2.5 mM BU, or 10^-8M RA, or exposed to a hydrolyzed (HY) HBR solution (2 mg/ml), obtained from a 2-h basic HBR hydrolysis followed by pH neutralization. This procedure affords a complete release of each single HBR grafted moiety, leading to the formation of a mixture of HA, BU, and RA, with each molecule in the concentration range reported above for the experiments based on cell incubation in the presence of each molecule alone. The amount of each transcript from exposed or unexposed cells was normalized to HPRT1, and the mRNA expression of exposed cells was plotted at each time point as fold change relative to the expression in control unexposed cells, defined as 1 (mean±S.E.; n=6).
This procedure affords a complete release of each single HBR grafted moiety, leading to the formation of a mixture of HA, BU, and RA, with each molecule in the concentration range reported above for the experiments based on (stem) cell incubation in the presence of each molecule alone.

Assay [2] deals with Lipogems-derived hASCs. Conditions: 2 mg/ml HBR. An excerpt:
(§1) A, Sox2; B, Oct4; C, Nanog. The amount of each transcript from exposed or unexposed cells was normalized to HPRT1, and the mRNA expression of exposed cells was plotted at each time point as fold change relative to the expression in control unexposed cells, defined as 1 (mean±S.E.; n=6);

The test system of assay [3] is human dermal skin fibroblasts. The conditions noted are these: 2 mg/ml HBR.
Description: as §1

Assay [4] has as its system Lipogems-derived hASCs. The conditions noted are these: 2 mg/ml HBR, 7-day treatment. The source says: (§2) A, GATA4; B, Nkx2.5; C, neurogenin1; D, VEGF; E, MyoD. The amount of each transcript from exposed or unexposed cells was normalized to HPRT1, and the mRNA expression of exposed cells was plotted at each time point as fold change relative to the expression in control unexposed cells, defined as 1 (mean±S.E.; n=6);

The subject of assay [5] is human dermal skin fibroblasts. Conditions: 2 mg/ml HBR, 7-day treatment.
Description: as §2

The test system of assay [6] is human dermal skin fibroblasts. The conditions noted are these: HBR 2 mg/ml for 14 days, confocal microscopy. An excerpt:
Scale bars are 40 μm. Representative of six separate experiments;

A further assay concerns human skin fibroblasts. Conditions: 14 days, 2 mg/ml HBR, mean±S.E., n=6.
For assay [7], the system named is Lipogems-derived hASCs. Conditions: 14 days, 2 mg/ml HBR, mean±S.E., n=6.
For assay [8], the system named is Lipogems-derived hASCs. Conditions: HBR for 14 days, confocal microscopy.
Assay [9] deals with adult rat cardiac ventricular cardiomyocytes. Conditions: in vitro HBR treatment; cited from earlier work.
In assay [10] the test system is Stro-1 positive rat mesenchymal stem cells. The conditions noted are these: in vitro HBR treatment; cited from earlier work.
Setting [11] is: later times of exposure (7-day treatment).
The mark [12] stands for this setting: within the first 12-24 hours of a 7-day treatment.

Where two headings read alike, the source gives them in different places.

hyaluronic acid [HA]: in assay [1], the “transcription of the stemness/pluripotency genes Sox2, Nanog and Oct4 versus unexposed control” value is recorded as “significantly increased”.
On the same count and under the same terms, next, `CCCC(=O)O` [BU, butyric acid]: “significantly increased”.
With “hyaluronic acid esterified with butyric and retinoic acids [HBR]”, the “transcription of stemness-related genes Nanog, Sox2, Oct4” value (shortened to “transcription … Sox2, Oct4”) in the assay with Lipogems-derived hASCs [2] (setting [11]) is listed as “down-regulation”. Besides, the “transcription … Sox2, Oct4” value in the assay on Lipogems-derived hASCs [2] (setting [12]) was “significantly enhanced”. The “transcription … Sox2, Oct4” value in assay [3] (setting [11]) is “down-regulation”. Moreover, the “transcription … Sox2, Oct4” value in assay [3] (setting [12]) was “significantly enhanced”. Also, the “gene expression of GATA4, Nkx2.5, VEGF, neurogenin-1 and myoD” value with Lipogems-derived hASCs [4] was “significantly enhanced”. Further, the “gene expression of GATA4, Nkx2.5, VEGF, neurogenin-1 and myoD” value in assay [5] was “significantly enhanced”. Also, in assay [6], the “expression of tissue restricted marker proteins (α-myosin heavy chain, α-sarcomeric actinin, β-3 tubulin, vWF, myoD)” value is on record as “appearance of cells expressing”. Moreover, the “transcription of the stemness/pluripotency genes Sox2, Nanog and Oct4 versus unexposed control” value in [1] was “significantly higher levels”. Moreover, in the assay with human skin fibroblasts, the “cells expressing vWF (endothelial marker)” value came to 18.0±2.6, the “cells expressing β-3-tubulin (neuronal determination marker)” value was found to be 12.30±2.7%, the “percentage of myoD (skeletal muscle)-positive elements” value is 14.00±3.00% and the “percentage of α-sarcomeric actinin (myocardial)-positive elements” value is 28.00±3.40%. In the assay with Lipogems-derived hASCs [7], the “cells expressing α-sarcomeric actinin” value amounted to 31.0±2.8%, the myoD positive cells came to 12.4±2.0%, the vWF positive cells was found to be 22.2±3.0% and the β-3-tubulin expressing cells was determined as 14.0±2.1%. The “expression of tissue restricted marker proteins (α-myosin heavy chain, α-sarcomeric actinin, β-3 tubulin, vWF, myoD)” value with Lipogems-derived hASCs [8] is on record as “appearance of cells expressing”. The “histone H4 acetylation compared with untreated cells” value in [9] is on record as “significant increase”. Besides, the “histone H4 acetylation compared with untreated cells” value in assay [10] is given as “significant increase”.

(Values after US20150275180A1, “Chemical preconditioning process for cell material to obtain chemical epigenetic reprogramming and pluripotency expression” (priority 2012, published 2015).)
